What was measured:
[1] = Formulations of Table 2 tested in paint for gloss and yellowness (Table 4)
Description: The formulations shown in Table 2 were tested in 23PVC50-VOC vinyl acrylic (UCAR379G) white and tested for gloss and yellowness.

[2] = Neutralizing agents tested in paint: viscosity, pH, gloss and yellowing compared to AMP-95 (Table 3); parameters: KU (eq) / ICI (eq): unit not given here; details: for pH (eq): pH of paint; for ICI (eq) / KU (eq): paint viscosity, 23PVC 50-VOC Vinyl Acrylic Semi-Gloss White, HASE thickener
Description: The neutralizing agents shown in Table 2 were further tested in a paint formulation 23[…] Vinyl Acrylic Semi-Gloss White, using a HASE thickener. Gloss measurements, as well as yellowing were compared to AMP-95.

Molecule | pH ([1]; pH of paint, 23PVC50-VOC vinyl acrylic (UCAR379G) white) | ICI (eq) ([1]; paint viscosity) | KU (eq) ([1]; paint viscosity) | pH (eq) [2] | ICI (eq) [2] | KU (eq) [2]
CC(C)(N)CO [AMP-95, 2-amino-2-methyl-1-propanol, reference compound] | 8.78 | 1.110 | 95.2 | 8.77 | 1.110 | 95.2
NCC(=O)O [Glycine (neutralized w/NaOH), Glycine] | – | – | – | 9.7 | 1.023 | 94
C[C@H](N)C(=O)O [L-Alanine (neutralized w/NaOH), L-Alanine] | – | – | – | 8.61 | 1.052 | 94.3
DL-Aspartic Acid Potassium Salt Hemihydrate | – | – | – | 8.54 | 1.046 | 90.8
